Source: publication PMC10593844, “Structure-function analyses reveal key molecular determinants of HIV-1 CRF01_AE resistance to the entry inhibitor temsavir” (Nature Communications, 2023)
Several values for one entry are separate records, joined by “and”; a condition that tells them apart may be missing. Equal entries are not always repeated. Where two headings read alike, the source gives them in different places.

Legend:
[1] = test system: HIV-1 pseudovirus bearing EnvJR-FL S375T; assay: organism not typed; format: cell-based; conditions: for Relative infectivity (%): JRFL S375T
[2] = test system: HIV-1 pseudovirus bearing EnvJR-FL S375M; assay: organism not typed; format: cell-based
[3] = test system: HIV-1 pseudovirus bearing EnvJR-FL S375F; assay: organism not typed; format: cell-based
[4] = test system: HIV-1 pseudovirus bearing EnvJR-FL S375W; assay: organism not typed; format: cell-based; conditions: for Relative infectivity (%): JRFL S375W
[5] = test system: HIV-1 pseudovirus bearing CRF01_AE 92TH023 Env WT; assay: organism not typed; format: cell-based; conditions: for Relative infectivity (%): 92TH023 WT
[6] = test system: HIV-1 pseudovirus bearing CRF01_AE 92TH023 Env LMHS; assay: organism not typed; format: cell-based; conditions: for Relative infectivity (%): 92TH023 LMHS
[7] = test system: HIV-1 pseudovirus bearing CRF01_AE CM244 Env LM; assay: organism not typed; format: cell-based; conditions: for Relative infectivity (%): CM244 LM
[8] = test system: HIV-1 pseudovirus bearing clade B YU2 Env S375H; assay: organism not typed; format: cell-based; conditions: for Relative infectivity (%): YU2 S375H
[9] = test system: HIV-1 pseudovirus bearing clade B YU2 Env LM; assay: organism not typed; format: cell-based; conditions: for Relative infectivity (%): YU2 LM
[10] = test system: HIV-1 pseudovirus bearing clade B YU2 Env LM+ST; assay: organism not typed; format: cell-based; conditions: for Relative infectivity (%): YU2 LM+ST
[11] = test system: HIV-1 pseudovirus bearing clade B YU2 Env Y61H; format: cell-based
[12] = test system: HIV-1JR-FL Env S375N on HEK293T cells; format: binding; conditions: JRFL S375N; temsavir 10 µM; listed as TMR
[13] = test system: HIV-1JR-FL Env S375F on HEK293T cells; format: binding; conditions: JRFL S375F; temsavir 10 µM; listed as TMR
[14] = test system: HIV-1JR-FL Env S375Y on HEK293T cells; format: binding; conditions: JRFL S375Y; temsavir 10 µM; listed as TMR
[15] = test system: CRF01_AE 92TH023 Env WT on HEK293T cells; format: binding; conditions: 92TH023 WT; temsavir 10 µM; listed as TMR
[16] = test system: CRF01_AE 92TH023 Env LM on HEK293T cells; format: binding; conditions: 92TH023 LM; temsavir 10 µM; listed as TMR
[17] = test system: CRF01_AE 92TH023 Env LMHS on HEK293T cells; format: binding; conditions: 92TH023 LMHS; temsavir 10 µM; listed as TMR
[18] = test system: CRF01_AE 92TH023 Env LMHT on HEK293T cells; format: binding; conditions: 92TH023 LMHT; temsavir 10 µM; listed as TMR
[19] = test system: CRF01_AE CM244 Env LM on HEK293T cells; format: binding; conditions: temsavir 10 µM, listed as TMR
[20] = molecular target: T1, clade B YU2 Env WT on HEK293T cells (Human immunodeficiency virus type 1 group M subtype B, UniProt P35961); format: binding; conditions: temsavir 10 µM, listed as TMR
T1 construct: expressed in transfected cells; host or cells: HEK293T (pSVIIIenv co-transfected with a Tat expressor)

[21] = molecular target: T2, clade B YU2 Env S375T on HEK293T cells (Human immunodeficiency virus type 1 group M subtype B, UniProt P35961, S370T); format: binding; conditions: temsavir 10 µM, listed as TMR
T2 construct: expressed in transfected cells; host or cells: HEK293T (pSVIIIenv co-transfected with a Tat expressor)

[22] = molecular target: T3, clade B YU2 Env S375H on HEK293T cells (Human immunodeficiency virus type 1 group M subtype B, UniProt P35961, S370H); format: binding; conditions: temsavir 10 µM, listed as TMR
T3 construct: expressed in transfected cells; host or cells: HEK293T (pSVIIIenv co-transfected with a Tat expressor)

[23] = test system: panel of 208 HIV-1 Envs from different clades; conditions: cited from earlier work; for IC50: read-out: Neutralization IC50
CRF01_AE strains = test system: CRF01_AE strains; set-up: method as in PMID 30604750; conditions: CRF01_AE strains; cited from earlier work

## COc1cnc(-n2cnc(C)n2)c2[nH]cc(C(=O)C(=O)N3CCN(C(=O)c4ccccc4)CC3)c12 [Temsavir, temsavir]
[1]; Cf2Th-CD4/CCR5
  IC50: 0.00043 µM
[1]; Temsavir 0.1 nM
  Relative infectivity (%): 69.2755% and 98.112% and 68.2496%
[1]; Temsavir 5 nM
  Relative infectivity (%): 1.701% and 2.403% and 0.1043%
[1]; Temsavir 25 nM
  Relative infectivity (%): 0.2129% and 0.1167% and 0.02715% and 9.3062%
[1]; Temsavir 100 nM
  Relative infectivity (%): 0.02755% and 0.0119% and 0.01656% and 2.113%
[2]; Cf2Th-CD4/CCR5
  IC50: 0.0647 µM
[2]; JRFL S375M, Temsavir 0.1 nM
  Relative infectivity (%): 98.6007% and 143.038% and 92.762%
[3]; Cf2Th-CD4/CCR5
  IC50: > 0.1 µM
[3]; JRFL S375F, Temsavir 0.1 nM
  Relative infectivity (%): 97.0588% and 121.506% and 78.411%
[4]; Cf2Th-CD4/CCR5
  IC50: > 0.1 µM
[4]; Temsavir 0.1 nM
  Relative infectivity (%): 99.9863% and 100.025% and 95.7102%
[4]; Temsavir 0.5 nM
  Relative infectivity (%): 97.6131% and 107.833% and 88.0394%
[4]; Temsavir 1 nM
  Relative infectivity (%): 112.34% and 95.1648% and 85.749%
[4]; Temsavir 5 nM
  Relative infectivity (%): 108.208% and 99.6983% and 99.0301%
[5]; Temsavir 1 nM
  Relative infectivity (%): 89.8645% and 102.181% and 86.0322%
[5]; Temsavir 5 nM
  Relative infectivity (%): 77.4465% and 120.721% and 86.7772%
[5]; Temsavir 10 nM
  Relative infectivity (%): 69.308% and 86.3374% and 95.4665%
[5]; Temsavir 50 nM
  Relative infectivity (%): 75.3192% and 101.13% and 84.1355%
[5]; Cf2Th-CD4/CCR5
  IC50: > 0.05 µM
[6]; Temsavir 1 nM
  Relative infectivity (%): 49.3528% and 37.816% and 43.3804%
[6]; Temsavir 5 nM
  Relative infectivity (%): 29.4428% and 33.6115% and 29.1035%
[6]; Temsavir 10 nM
  Relative infectivity (%): 21.0612% and 17.7261% and 12.1457%
[6]; Temsavir 50 nM
  Relative infectivity (%): 7.315% and 6.366% and 6.4059%
[6]; Cf2Th-CD4/CCR5
  IC50: 0.00089 µM
[7]; Temsavir 1 nM
  Relative infectivity (%): 102.819% and 104.55% and 70.4862%
[7]; Temsavir 10 nM
  Relative infectivity (%): 98.1419% and 107.4% and 59.1318%
[7]; Temsavir 50 nM
  Relative infectivity (%): 106.175% and 96.9147% and 54.579%
[7]; Cf2Th-CD4/CCR5
  IC50: > 0.05 µM
[8]; Cf2Th-CD4/CCR5
  IC50: 0.0229 µM
[8]; Temsavir 1 nM
  Relative infectivity (%): 63.2919% and 87.0597% and 84.5852%
[8]; Temsavir 5 nM
  Relative infectivity (%): 57.7086% and 71.798% and 64.2482%
[8]; Temsavir 10 nM
  Relative infectivity (%): 66.6494% and 65.3275% and 50.1024%
[8]; Temsavir 50 nM
  Relative infectivity (%): 26.1516% and 30.7973% and 25.917%
[8]; Temsavir 100 nM
  Relative infectivity (%): 13.7111% and 12.275% and 13.4865%
[9]; Cf2Th-CD4/CCR5
  IC50: 0.00917 µM
[9]; Temsavir 1 nM, Fig 2f
  Relative infectivity (%): 76.4591% and 76.4018% and 119.182%
[9]; Temsavir 2 nM, Fig S1
  Relative infectivity (%): 74.57% and 102.72% and 96.57%
[9]; Temsavir 5 nM, Fig 2f
  Relative infectivity (%): 65.3412% and 84.0034% and 74.4376%
[9]; Temsavir 10 nM, Fig 2f
  Relative infectivity (%): 41.1017% and 43.3512% and 50.8185%
[9]; Temsavir 10 nM, Fig S1
  Relative infectivity (%): 72.47% and 80.59% and 43.3%
[9]; Temsavir 50 nM, Fig 2f
  Relative infectivity (%): 13.0704% and 12.6708% and 13.2107%
[9]; Temsavir 50 nM, Fig S1
  Relative infectivity (%): 31.31% and 45.33% and 30.59%
[9]; Temsavir 100 nM, Fig 2f
  Relative infectivity (%): 5.153% and 3.308% and 7.353%
[9]; Temsavir 100 nM, Fig S1
  Relative infectivity (%): 8.15% and 12.22% and 6.99%
[10]; Cf2Th-CD4/CCR5
  IC50: 0.0321 µM
[10]; Temsavir 1 nM
  Relative infectivity (%): 95.2565% and 91.9655% and 79.6279%
[10]; Temsavir 5 nM
  Relative infectivity (%): 83.0048% and 82.0339% and 77.855%
[10]; Temsavir 10 nM
  Relative infectivity (%): 75.1553% and 73.7876% and 56.2664%
[10]; Temsavir 50 nM
  Relative infectivity (%): 36.2326% and 38.0343% and 31.1158%
[10]; Temsavir 100 nM
  Relative infectivity (%): 20.7287% and 13.4951% and 13.1747%
[11]; Temsavir 5 nM
  Relative infectivity (%): 2.81% and 1.74% and 3.98%
[11]; Temsavir 10 nM
  Relative infectivity (%): 1.05% and 1.23% and 1.34%
[11]; Temsavir 50 nM
  Relative infectivity (%): 1.04% and 1.28% and 3.8%
[11]; Temsavir 100 nM
  Relative infectivity (%): 0.97% and 2.23% and 1.32%
[12]
  sCD4 binding (+TMR) - Fold over DMSO: 0.2273 and 0.2477 and 0.2229
[13]
  sCD4 binding (+TMR) - Fold over DMSO: 0.9879 and 0.8506 and 0.9038
[14]
  sCD4 binding (+TMR) - Fold over DMSO: 1.015 and 0.9829 and 1.003
[15]
  sCD4 binding (+TMR) - Fold over DMSO: 0.9655 and 0.9282 and 0.9905
[16]
  sCD4 binding (+TMR) - Fold over DMSO: 1.042 and 0.933 and 0.9789
[17]
  sCD4 binding (+TMR) - Fold over DMSO: 0.3873 and 0.484 and 0.5948
[18]
  sCD4 binding (+TMR) - Fold over DMSO: 0.7044 and 0.6853 and 0.7442
[19]
  sCD4 binding (+TMR) - Fold over DMSO: 1.043 and 1.054 and 0.9268
[20]
  sCD4 binding (+TMR) - Fold over DMSO: 0.4934 and 0.673 and 0.6222
[21]
  sCD4 binding (+TMR) - Fold over DMSO: 0.6011 and 0.7082 and 0.7739
[22]
  sCD4 binding (+TMR) - Fold over DMSO: 1.163 and 1.208 and 0.9124
[23]; Fig 2a, Env strains with Y61, ref Pancera et al.
  IC50: 0.0004 µM
[23]; individual strains with H375
  IC50: > 20 µM and 18.1 µM and 4.04 µM and 8.52 µM and 12.7 µM and 4.77 µM and 2.81 µM and 13 µM and 4.13 µM and 5.13 µM
[23]; individual strains with S375
  IC50: 0.012 µM
[23]; individual strains, CRF01_AE
  IC50: > 20 µM and 18.1 µM and 4.04 µM and 8.52 µM and 12.7 µM and 4.77 µM and 2.81 µM and 13 µM and 4.13 µM and 5.13 µM
[23]; whole panel, different clades
  active against % of a panel of 208 HIV-1 Envs: 91%
CRF01_AE strains
  IC50: > 5.8 µM
